# Measured values as given in patent US20240150303A1, “DIAMINOTRIAZINE COMPOUNDS” (BASF SE, priority 2021, published 2024).
# Values joined by “and” are separate entries in the source; they are usually repeats but may differ in a detail not shown here. Identical values can stand only once.
# Assays:
# Test in all cases: greenhouse pre-emergence herbicidal test
# Format in all cases: in vivo
# [1] = tested on: Setaria faberi
# Description: (§1) The seeds of the test plants were sown separately for each species. For the pre-emergence treatment, the active ingredients, which had been suspended or emulsified in water, were applied directly after sowing by means of finely distributing nozzles. The containers were irrigated gently to promote germination and growth and subsequently covered with transparent plastic hoods until the plants had rooted. This cover caused uniform germination of the test plants, unless this had been impaired by the active ingredients. […] The test period extended over 2 to 4 weeks. During this time, the plants were tended, and their response to the individual treatments was evaluated. Evaluation was carried out using a scale from 0 to 100. 100 means no emergence of the plants, or complete destruction of at least the aerial moieties, and 0 means no damage, or normal course of growth. A moderate herbicidal activity is given at values of at least 60, a good herbicidal activity is given at values of at least 70, and a very good herbicidal activity is given at values of at least 85. The plants used in the greenhouse experiments were of the following species: [table]
# [2] = tested on: Echinocloa crus-galli
# Description: as §1
# [3] = tested on: Amaranthus retroflexus
# Description: as §1
SMILES,herbicidal activity ([1]; 62 g/ha),herbicidal activity ([2]; 62 g/ha),herbicidal activity ([3]; 62 g/ha),also measured
COc1c(Br)cc(Cl)c(C)c1Nc1nc(N)nc(C(C)F)n1 (racemic) [Example 96],75%,70%,,
C#CCOc1c(Br)cc(F)c(C)c1Nc1nc(N)nc(C(C)(C)F)n1 [Example 22],100%,100%,100%,herbicidal activity ([1]; 62.5 g/ha): 100%; herbicidal activity ([2]; 62.5 g/ha): 85%; herbicidal activity ([3]; 62.5 g/ha): 85%
CCOc1c(Br)cc(F)c(C)c1Nc1nc(N)nc(C(C)(C)F)n1 [Example 23],100%,100%,100%,herbicidal activity ([1]; 62.5 g/ha): 100%; herbicidal activity ([2]; 62.5 g/ha): 100%; herbicidal activity ([3]; 62.5 g/ha): 100%
CC#CCOc1c(F)cc(F)c(Cl)c1Nc1nc(N)nc(C(C)(C)F)n1 [Example 25],100%,100%,100%,herbicidal activity ([1]; 250 g/ha): 100%; herbicidal activity ([2]; 250 g/ha): 100%; herbicidal activity ([3]; 250 g/ha): 100%
CCC#CCOc1c(F)cc(F)c(Cl)c1Nc1nc(N)nc(C(C)(C)F)n1 [Example 26],100%,100%,100%,herbicidal activity ([1]; 250 g/ha): 100%; herbicidal activity ([2]; 250 g/ha): 100%; herbicidal activity ([3]; 250 g/ha): 100%
CC(C)(F)c1nc(N)nc(Nc2c(Cl)c(F)cc(F)c2OCC#CC2CC2)n1 [Example 27],100%,100%,100%,herbicidal activity ([1]; 31 g/ha): 100%; herbicidal activity ([3]; 31 g/ha): 100%
C#CCOc1c(F)cc(F)c(Cl)c1Nc1nc(N)nc(C(C)(C)F)n1 [Example 28],100%,100%,100%,herbicidal activity ([1]; 62.5 g/ha): 100%; herbicidal activity ([2]; 62.5 g/ha): 100%; herbicidal activity ([3]; 62.5 g/ha): 100%
COc1c(Br)cc(F)c(Cl)c1Nc1nc(N)nc(C2(F)CC2)n1 [Example 42],,,,herbicidal activity ([1]; 31 g/ha): 100%; herbicidal activity ([2]; 31 g/ha): 100%; herbicidal activity ([3]; 31 g/ha): 100%
COc1c(Cl)ccc(Cl)c1Nc1nc(N)nc(C(C)(F)F)n1 [Example 72],80% and 100%,100%,100%,
COc1c(Cl)cc(F)c(C)c1Nc1nc(N)nc(C2(F)CCCC2)n1 [Example 73],100%,100%,100%,
COc1c(Br)cc(F)c(C)c1Nc1nc(N)nc(C(C)F)n1 (stereo not shown) [Example 74],100%,100%,100%,
COc1c(Br)cc(F)c(C)c1Nc1nc(N)nc(C(C)(F)CCl)n1 (stereo not shown) [Example 75],100%,100%,100%,
COc1c(Br)cc(F)c(C)c1Nc1nc(N)nc(C(C)(F)CBr)n1 (stereo not shown) [Example 76],100%,100%,100%,
COc1c(Br)cc(F)c(C)c1Nc1nc(N)nc(C(C)(F)F)n1 [Example 77],100%,100%,100%,
COc1c(Br)cc(F)c(C)c1Nc1nc(N)nc(C2(F)CCCC2)n1 [Example 78],100%,100%,100%,
COc1c(Br)cc(F)c(C)c1Nc1nc(N)nc(C(C)(C)F)n1 [Example 80],100%,100%,100%,
CC#CCOc1c(Br)cc(C)c(Cl)c1Nc1nc(N)nc(C(C)(C)F)n1 [Example 82],100%,100%,100%,
COc1c(Br)cc(C)c(Cl)c1Nc1nc(N)nc(C(C)(C)F)n1 [Example 83],100%,100%,100%,
